Measured values reported in patent publication US9783518B2, “Therapeutic agent and treatment method for ameliorating uremia” (Toray Industries, Inc., priority 2005, dated 2017).
Entries after “also recorded” stand apart in the source; their conditions may differ.

How the values were obtained:
[1] = test system: cats with chronic renal failure; assay: Blood biochemical analysis and urinalysis (BUN, serum Cre, glucose) in cats with chronic renal failure; assay type: in vivo, cat; conditions: Case-G; for Cre: 40 μg/head/BID
[2] = test system: cats with chronic renal failure; assay: Clinical score of uremic symptoms (activity + appetite) in cats with chronic renal failure; assay type: in vivo, cat; conditions: for clinical total score (full points 5): after one month
Procedure: Testing methods for the patients showing uremia caused by chronic renal failure, employed in Example 4 or later, will now be described. The criteria and evaluation items for the cats and dogs with chronic renal failure are as follows: Diagnosis of uremia and chronic renal failure were performed totally taking clinical findings (including findings of uremia) and the results of the blood test, blood biochemical analysis and urinalysis into consideration. As the clinical findings of uremia, existence and degree of polydipsia and diuresis, dehydration, anorexia, weight loss, vomiting symptom and state of dehydration were observed. Existence of chronic renal failure was judged based on the serum Cre value as generally employed. As reference data for grasping the degree of progress of chronic renal failure, BUN value was also monitored.
This pilot clinical test was performed after obtaining informed consent of the owners of the cats (clients) before the start of the test, wherein the clients received explanations about the fact that beraprost sodium had already been approved as a drug for human chronic artery obstruction and had already been marketed, and about the safety thereof. Further, giving first priority to the benefit of the patients and clients, conventional therapeutic methods were also combined appropriately for the individuals with progressed renal failure. Examples of the concomitant drugs employed include synthetic active carbons such as Covalzin, Kremezin and Nefguard; calcium preparations such as calcium carbonate; formula meals such as k/d and low-protein diets; and infusion solutions. However, in cases where there was a rational reason and consent by the owner was obtained, beraprost sodium alone was administered even to the individual with progressed renal failure. On the other hand, drugs thought to influence on the action of beraprost sodium, such as vasodilators (e.g., enalapril), diuretic (e.g., furosemide), drugs which influence on renal blood flow (e.g., dopamine) and steroids (e.g., prednisolone) were not used.
Administration of beraprost sodium was conducted by orally administering the tablet with a content of 150 μg/tablet (Example 1) twice a day (300 μg/head/day). The administration was conducted every day and continued basically for 6 months, and in cases where the owner desired, the administration was continued even after the test period. The Examples of the present invention include both cases where the dosing period was less than 6 months and more than 6 months.
Evaluation of degree of improvement of the uremic symptoms was carried out as follows: From the clinical symptoms related to uremia, activity and appetite, which are unlikely to be overlooked and which can be observed universally from before to after the test period, were selected. […] The evaluation was carried out based on the total points (full points were 5 points). Thus, a higher point indicates more improvements in the clinical symptoms.

healthy cats = assay: Blood test and blood chemical analysis in healthy cats; assay type: in vivo, cat; conditions: after 7 days BID at 10-100 μg/kg oral
Procedure: In this study, 3 male cats and 2 female cats, totally 5 Japanese cats, aging 3 to 6 years old were used, which were raised in an animal hospital and for which no abnormalities were observed clinically and by blood test. The subject cats were individually placed in each cage in which each cat was allowed to take water ad libitum, and each cat was fed twice a day after measuring the necessary items. For the purpose of acclimatization, the cats were measured for blood pressure noninvasively twice a day for 2 weeks.
Blood test and blood chemical analysis were carried out as follows: Blood was collected before administration of beraprost sodium and on the next day of the termination of continuous administration for 7 days at each dose (the continuous administration of one test compound for 7 days is hereinafter referred to as “1 series”) at fasting, and analyzed. Inspection items in the blood test were RBC, WBC, PCV, Hb and Plat, and those in the blood chemical analysis were AST, ALT, T.P, BUN, Cre, Na, K and Cl.
In each administration series, the same cat was used in each administration series as the subject cat for the correctness of the evaluation of the test drug. To eliminate the influence of the test drug of the previous series, wash out period of 2 weeks were given after the termination of the respective series. […]

[3] = test system: dog with chronic renal failure; assay: BUN and serum Cre in dog with chronic renal failure (Case-H); assay type: in vivo; conditions: 150 μg/capsule oral twice a day alone
Procedure: In the blood test, RBC, WBC, PCV, Hg and PLT were measured. In the blood biochemical analysis, TP, Tcho, AST, ALT, ALP, Tbil, BUN, creatinine, calcium, inorganic phosphorus, glucose, sodium ion, potassium ion and chloride ion were measured. In the urinalysis, protein amount, pH, occult blood, bilirubin and glucose were measured. To eliminate the circadian rhythm and influence by meals on the values of blood biochemical markers, every blood collection was carried out in the morning before feeding (at fasting).
As a more specific criterion for chronic renal failure in cats and dogs in the present Examples, a serum Cre value of 1.4 mg/dL in the blood test was employed. Serum Cre value was measured by creatinine deaminase-amidohydrolase method, and the BUN value as reference data for grasping the degree of progress of chronic renal failure was measured by urease-GLDH method.
In view of this, after obtaining consent by the client, treatment with Covalzin was stopped, and switched to administration of beraprost sodium alone. Beraprost sodium was diluted with polyethylene glycol (Wako) to attain a dose of 150 μg/capsule, and was divided into capsules (size 5 Shionogi Qualicaps). Beraprost sodium was orally administered twice a day at fasting. […] In the above-described series of therapy, feeding of a formula meal and infusion were not performed at all.

## CC#CC[C@@H](C)[C@H](O)/C=C/[C@@H]1[C@H]2c3cccc(CCCC(=O)[O-])c3O[C@H]2C[C@H]1O.[Na+] (mixture of isomers) [beraprost sodium, Sodium rac-(1R,2R,3aS,8bS)-2,3,3a,8b-tetrahydro-2-hydroxy-1-[(E)-(3S,4RS)-3-hydroxy-4-methyloct-1-en-6-ynyl]-1H-cyclopenta[b][1]benzofuran-5-butanoate]
[1]; 40 μg/head/BID tablets alone
  BUN value: almost kept constant
[1]; Day 28
  Cre: 2.79 mg/dL
[1]; Day 56
  Cre: 3.02 mg/dL
[2]; Case-A, male cat 5 y, 150 μg tablet oral BID alone, first month
  clinical score (full points 5): 4
[2]; Case-A, 150 μg oral BID alone, second month, maintained for 6 months
  clinical score (full points 5): 5
[2]; Case-A, 6 months after termination (12 months after start)
  clinical conditions / uremic symptoms at follow up: not observed at all; also recorded: very good
[2]; Case-A, 6 months of 150 μg oral BID alone
  outcome of uremia and renal failure: completely cured
[2]; Case-A, end of the 6-month dosing period
  differences from normal cats in clinical observations and biochemical markers: no differences
[2]; Case-B, male cat 4 y, 150 μg oral BID alone, 1 month after start, 3 points before
  total score of the clinical symptoms (full points 5): 5 points
[2]; Case-B, first to second month
  clinical symptoms: slight amelioration
[2]; Case-B, from the fourth month
  clinical score (full points 5): 5 points
[2]; Case-C, female cat 16 y, 150 μg oral BID alone, second week, 2 points before
  clinical score (full points 5): 4 points
[2]; Case-C, after 2.5 months
  clinical score (full points 5): 5 points
[2]; Case-C, after the sixth week
  clinical score (full points 5): 4 points
[2]; Case-C, sixth week
  clinical score (full points 5): 2 points
[2]; Case-D, male Siamese cat 17 y, 150 μg oral BID alone, 2 points before
  clinical total score (full points 5): 5 points
[2]; Case-E, 150 μg oral BID plus Covalzin 200 mg/BID, calcium preparation, formula meal, infusion, 0 point before
  clinical total score (full points 5): 4 points
[2]; Case-E, combination therapy, first about 3 months
  dehydration: completely disappeared
[2]; Case-E, combination therapy, for about 3 months
  clinical score (full points 5): 5 points
[2]; Case-E, combination without Covalzin from fourth month, for about 2 months
  clinical score (full points 5): 3 points
[2]; Case-E, combination without Covalzin, 7th to 8th month
  clinical score (full points 5): 5 points
[2]; Case-F, 150 μg oral BID added to insulin, active carbon, calcium carbonate, first month, continues 10 months
  clinical score (full points 5): 5 points
[2]; Case-F, combination therapy, after start of beraprost sodium
  uremic symptoms: disappeared; also recorded: quickly improved
[2]; cats with renal failure, overall
  appetite and desire for water: clearly improved
Healthy cats
  blood cell count, electrolytes, renal function and liver function: no adverse change was observed
[3]
  BUN: did not almost change
  serum Cre value: continuously increased
